Measured values taken from patent publication US9452986B2, “6-heteroaryloxy- or 6-aryloxy-quinoline-2-carboxamides and method of use” (AbbVie Inc., priority 2014, dated 2016).

Molecular target: recombinant human Nav1.7 (Homo sapiens (Human), UniProt Q15858)
Assay: FRET-based membrane potential assay, recombinant human sodium channel Nav1.7
Assay type: cell-based
Conditions: FRET-Membrane Potential Nav1.7 IC50
Procedure, shortened: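 Channel activation used veratridine at its EC80, set by a dilution curve each experiment, together with Leiurus scorpion venom, added 3 min after compound. Membrane-potential ratio signals from FLIPR Tetra in HEPES-buffered HBSS were fitted to a four-parameter Hill equation for percent inhibition and IC50.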

Sequence of recombinant human Nav1.7 (Q15858 whole entry): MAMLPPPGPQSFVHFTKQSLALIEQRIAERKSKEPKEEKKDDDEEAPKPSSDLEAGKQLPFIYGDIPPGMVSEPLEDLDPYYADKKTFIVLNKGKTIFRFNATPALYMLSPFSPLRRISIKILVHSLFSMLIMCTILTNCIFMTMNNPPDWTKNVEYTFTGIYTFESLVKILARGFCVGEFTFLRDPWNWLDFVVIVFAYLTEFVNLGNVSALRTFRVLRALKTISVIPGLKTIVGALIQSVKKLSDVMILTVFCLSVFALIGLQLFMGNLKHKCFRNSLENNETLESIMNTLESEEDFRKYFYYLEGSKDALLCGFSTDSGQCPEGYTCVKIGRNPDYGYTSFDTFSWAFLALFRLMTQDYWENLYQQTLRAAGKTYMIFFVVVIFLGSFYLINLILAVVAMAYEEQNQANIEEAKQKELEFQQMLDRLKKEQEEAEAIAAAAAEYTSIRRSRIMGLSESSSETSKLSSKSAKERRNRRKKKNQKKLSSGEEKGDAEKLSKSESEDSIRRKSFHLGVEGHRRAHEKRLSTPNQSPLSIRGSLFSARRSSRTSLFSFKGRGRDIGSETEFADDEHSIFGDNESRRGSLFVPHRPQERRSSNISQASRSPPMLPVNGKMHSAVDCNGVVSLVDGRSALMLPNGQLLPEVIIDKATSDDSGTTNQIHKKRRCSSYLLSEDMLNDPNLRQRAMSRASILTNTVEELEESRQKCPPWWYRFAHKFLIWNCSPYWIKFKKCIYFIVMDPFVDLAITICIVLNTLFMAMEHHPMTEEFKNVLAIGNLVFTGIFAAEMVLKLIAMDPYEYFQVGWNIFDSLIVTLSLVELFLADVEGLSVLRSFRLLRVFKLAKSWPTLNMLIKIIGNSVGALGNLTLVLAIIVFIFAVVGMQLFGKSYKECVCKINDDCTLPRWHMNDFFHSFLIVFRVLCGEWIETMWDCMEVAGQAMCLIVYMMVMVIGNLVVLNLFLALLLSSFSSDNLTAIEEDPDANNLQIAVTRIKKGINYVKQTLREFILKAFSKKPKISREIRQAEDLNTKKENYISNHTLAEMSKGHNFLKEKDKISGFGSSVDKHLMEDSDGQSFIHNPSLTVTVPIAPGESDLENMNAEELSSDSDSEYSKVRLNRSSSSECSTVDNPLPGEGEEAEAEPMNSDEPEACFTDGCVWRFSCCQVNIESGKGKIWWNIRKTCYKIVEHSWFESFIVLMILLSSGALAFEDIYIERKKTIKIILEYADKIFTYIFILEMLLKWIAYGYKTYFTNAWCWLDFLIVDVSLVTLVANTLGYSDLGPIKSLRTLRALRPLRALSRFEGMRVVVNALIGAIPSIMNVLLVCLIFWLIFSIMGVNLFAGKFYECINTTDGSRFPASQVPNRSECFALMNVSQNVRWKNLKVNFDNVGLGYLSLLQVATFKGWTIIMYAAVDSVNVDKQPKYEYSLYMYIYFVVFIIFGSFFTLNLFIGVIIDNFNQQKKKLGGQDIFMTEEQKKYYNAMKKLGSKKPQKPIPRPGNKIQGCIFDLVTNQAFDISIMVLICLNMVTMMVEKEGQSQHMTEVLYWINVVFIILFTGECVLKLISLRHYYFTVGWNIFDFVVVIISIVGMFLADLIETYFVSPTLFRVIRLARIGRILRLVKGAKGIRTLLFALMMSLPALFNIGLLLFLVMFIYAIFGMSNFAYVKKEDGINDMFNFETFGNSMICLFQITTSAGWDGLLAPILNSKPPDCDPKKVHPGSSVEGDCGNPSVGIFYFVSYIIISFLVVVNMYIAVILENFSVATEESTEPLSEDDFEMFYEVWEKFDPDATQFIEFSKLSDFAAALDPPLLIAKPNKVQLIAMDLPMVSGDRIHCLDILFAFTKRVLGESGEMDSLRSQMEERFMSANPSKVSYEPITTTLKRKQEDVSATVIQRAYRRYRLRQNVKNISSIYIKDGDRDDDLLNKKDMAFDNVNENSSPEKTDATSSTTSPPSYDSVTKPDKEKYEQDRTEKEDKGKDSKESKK

Compound	IC50 [nM]
O=C(N[C@H]1C[C@H](O)C1)c1ccc2cc(Oc3ccc(C(F)(F)F)cn3)ccc2n1 [Example 302, N-(trans-3-hydroxycyclobutyl)-6-{[5-(trifluoromethyl)pyridin-2-yl]oxy}quinoline-2-carboxamide]	3490

Same assay, conditions: HEK293 cells stably expressing recombinant human Nav1.7; veratridine + scorpion venom depolarization; read-out: FRET-Membrane Potential Nav1.7 IC50

Compound	IC50 [nM]
CC(C)(C)N1CCN(C(=O)c2ccc3cc(Oc4ccc(C(F)(F)F)cn4)ccc3n2)CC1 [Example 228, (4-tert-butylpiperazin-1-yl)(6-{[5-(trifluoromethyl)pyridin-2-yl]oxy}quinolin-2-yl)methanone]	1150
O=C(c1ccc2cc(Oc3ccc(C(F)(F)F)cn3)ccc2n1)N1C[C@H](CO)C[C@H](CO)C1 [Example 307, [cis-3,5-bis(hydroxymethyl)piperidin-1-yl](6-{[5-(trifluoromethyl)pyridin-2-yl]oxy}quinolin-2-yl)methanone]	14600
CN(CC(=O)NC1CC1)C(=O)c1ccc2cc(Oc3ccc(C(F)F)cn3)ccc2n1 [Example 466, N-[2-(cyclopropylamino)-2-oxoethyl]-6-{[5-(difluoromethyl)pyridin-2-yl]oxy}-N-methylquinoline-2-carboxamide]	9410
O=C(NCCN1CCSCC1)c1ccc2cc(Oc3ccc(C(F)(F)F)cn3)ccc2n1 [Example 365, N-[2-(thiomorpholin-4-yl)ethyl]-6-{[5-(trifluoromethyl)pyridin-2-yl]oxy}quinoline-2-carboxamide]	356
O=C(c1ccc2cc(Oc3ccc(C(F)(F)F)nc3)ccc2n1)N1CC[C@@H](F)C1 [Example 548, [(3R)-3-fluoropyrrolidin-1-yl](6-{[6-(trifluoromethyl)pyridin-3-yl]oxy}quinolin-2-yl)methanone]	4050
COCCNC(=O)CN(C)C(=O)c1ccc2cc(Oc3ccc(C(F)(F)F)nc3)ccc2n1 [Example 514, N-{2-[(2-methoxyethyl)amino]-2-oxoethyl}-N-methyl-6-{[6-(trifluoromethyl)pyridin-3-yl]oxy}quinoline-2-carboxamide]	12900
O=C(NC1(CO)CC1)c1ccc2cc(Oc3ccc(C(F)(F)F)cn3)ccc2n1 [Example 380, N-[1-(hydroxymethyl)cyclopropyl]-6-{[5-(trifluoromethyl)pyridin-2-yl]oxy}quinoline-2-carboxamide]	3000
O=C(c1ccc2cc(Oc3ccc(C(F)(F)F)cn3)ccc2n1)N1CC[C@H](O)[C@H](O)C1 (relative stereo) [Example 350, [cis-3,4-dihydroxypiperidin-1-yl](6-{[5-(trifluoromethyl)pyridin-2-yl]oxy}quinolin-2-yl)methanone]	> 20000
O=C(NCCN1CCOC1=O)c1ccc2cc(Oc3ccc(C(F)(F)F)cn3)ccc2n1 [Example 605, N-[2-(2-oxo-1,3-oxazolidin-3-yl)ethyl]-6-{[5-(trifluoromethyl)pyridin-2-yl]oxy}quinoline-2-carboxamide]	2880
CN1C(=O)CN(C(=O)c2ccc3cc(Oc4ccc(C(F)(F)F)cn4)ccc3n2)CC12COC2 [Example 188, 5-methyl-8-[(6-{[5-(trifluoromethyl)pyridin-2-yl]oxy}quinolin-2-yl)carbonyl]-2-oxa-5,8-diazaspiro[3.5]nonan-6-one]	9530
C[C@H]1N(C(=O)c2ccc3cc(Oc4ccc(C(F)(F)F)cn4)ccc3n2)CC1(C)C [Example 197, (6-{[5-(trifluoromethyl)pyridin-2-yl]oxy}quinolin-2-yl)[(2R)-2,3,3-trimethylazetidin-1-yl]methanone]	2720
N#CCCN1CCN(C(=O)c2ccc3cc(Oc4ccc(C(F)(F)F)cn4)ccc3n2)CC1 [Example 473, 3-{4-[(6-{[5-(trifluoromethyl)pyridin-2-yl]oxy}quinolin-2-yl)carbonyl]piperazin-1-yl}propanenitrile]	16200
N[C@@H]1[C@H]2CN(C(=O)c3ccc4cc(Oc5ccc(C(F)(F)F)nc5)ccc4n3)C[C@@H]12 [Example 528, meso-[(1R,5S,6s)-6-amino-3-azabicyclo[3.1.0]hex-3-yl](6-{[6-(trifluoromethyl)pyridin-3-yl]oxy}quinolin-2-yl)methanone]	2920
O=C(NC1CCC(F)(F)CC1)c1ccc2cc(Oc3ccc(C(F)F)cn3)ccc2n1 [Example 437, N-(4,4-difluorocyclohexyl)-6-{[5-(difluoromethyl)pyridin-2-yl]oxy}quinoline-2-carboxamide]	3170
CC(=O)NCCCNC(=O)c1ccc2cc(Oc3ccc(C(F)(F)F)cn3)ccc2n1 [Example 613, N-(3-acetamidopropyl)-6-{[5-(trifluoromethyl)pyridin-2-yl]oxy}quinoline-2-carboxamide]	2210
O=C(NCC(=O)N1C[C@@H](O)[C@H](O)C1)c1ccc2cc(Oc3ccc(C(F)(F)F)cn3)ccc2n1 [Example 563, N-{2-[(3R,4R)-3,4-dihydroxypyrrolidin-1-yl]-2-oxoethyl}-6-{[5-(trifluoromethyl)pyridin-2-yl]oxy}quinoline-2-carboxamide]	> 20000
O=C(c1ccc2cc(Oc3ccc(C(F)(F)F)cn3)ccc2n1)N1CCCC(O)CC1 (centres unmarked) [Example 284, (4-hydroxyazepan-1-yl)(6-{[5-(trifluoromethyl)pyridin-2-yl]oxy}quinolin-2-yl)methanone]	8590
O=C(NC1CC[S+]([O-])CC1)c1ccc2cc(Oc3ccc(C(F)F)cn3)ccc2n1 (centres unmarked) [Example 481, 6-{[5-(difluoromethyl)pyridin-2-yl]oxy}-N-(1-oxidotetrahydro-2H-thiopyran-4-yl)quinoline-2-carboxamide]	2630
COC1(CNC(=O)c2ccc3cc(Oc4ccc(C(F)(F)F)cn4)ccc3n2)CCC1 [Example 591, N-[(1-methoxycyclobutyl)methyl]-6-{[5-(trifluoromethyl)pyridin-2-yl]oxy}quinoline-2-carboxamide]	737
O=C(NC1CC(F)C1)c1ccc2cc(Oc3ccc(C(F)F)cn3)ccc2n1 (centres unmarked) [Example 617, 6-{[5-(difluoromethyl)pyridin-2-yl]oxy}-N-(3-fluorocyclobutyl)quinoline-2-carboxamide]	2780
O=C(c1ccc2cc(Oc3ccc(C(F)(F)F)cn3)ccc2n1)N1CC=CC1 [Example 220, 2,5-dihydro-1H-pyrrol-1-yl(6-{[5-(trifluoromethyl)pyridin-2-yl]oxy}quinolin-2-yl)methanone]	2000
O=C(c1ccc2cc(Oc3ccc(C(F)(F)F)cn3)ccc2n1)N1C[C@@H]2CCN[C@@H]2C1 [Example 280, (3 aS,6aS)-hexahydropyrrolo[3,4-b]pyrrol-5(1H)-yl(6-{[5-(trifluoromethyl)pyridin-2-yl]oxy}quinolin-2-yl)methanone]	605
CC(C)S(=O)(=O)N1CCN(C(=O)c2ccc3cc(Oc4ccc(C(F)(F)F)cn4)ccc3n2)CC1 [Example 177, [4-(isopropylsulfonyl)piperazin-1-yl](6-{[5-(trifluoromethyl)pyridin-2-yl]oxy}quinolin-2-yl)methanone]	2680
O=C(c1ccc2cc(Oc3ccc(C(F)(F)F)cn3)ccc2n1)N1CCc2nc[nH]c(=O)c2C1 [Example 342, 6-[(6-{[5-(trifluoromethyl)pyridin-2-yl]oxy}quinolin-2-yl)carbonyl]-5,6,7,8-tetrahydropyrido[4,3-d]pyrimidin-4(3H)-one]	3380
CCOCCNC(=O)c1ccc2cc(Oc3ccc(C#N)cc3)ccc2n1 [Example 108, 6-(4-cyanophenoxy)-N-(2-ethoxyethyl)quinoline-2-carboxamide]	2410
CNC(=O)[C@@H]1CCCN1C(=O)c1ccc2cc(Oc3ccc(C(F)(F)F)cn3)ccc2n1 [Example 239, N-methyl-1-[(6-{[5-(trifluoromethyl)pyridin-2-yl]oxy}quinolin-2-yl)carbonyl]-L-prolinamide]	> 20000
O=C(c1ccc2cc(Oc3ccc(C(F)(F)F)cn3)ccc2n1)N1CCN(C(=O)N2CCOCC2)CC1 [Example 299, morpholin-4-yl{4-[(6-{[5-(trifluoromethyl)pyridin-2-yl]oxy}quinolin-2-yl)carbonyl]piperazin-1-yl}methanone]	> 20000

Same assay, conditions: read-out: FRET-Membrane Potential Nav1.7 IC50

Compound	IC50 [nM]
O=C(NCC1CCN1)c1ccc2cc(Oc3ccc(C(F)(F)F)cn3)ccc2n1 (centres unmarked) [Example 424, N-(azetidin-2-ylmethyl)-6-{[5-(trifluoromethyl)pyridin-2-yl]oxy}quinoline-2-carboxamide]	1310
O=C(c1ccc2cc(Oc3ccc(C(F)(F)F)cn3)ccc2n1)N1CCN(S(=O)(=O)c2ccccc2)CC1 [Example 178, [4-(phenylsulfonyl)piperazin-1-yl](6-{[5-(trifluoromethyl)pyridin-2-yl]oxy}quinolin-2-yl)methanone]	523
O=C(c1ccc2cc(Oc3ncc(C(F)(F)F)cc3Br)ccc2n1)N1CCNCC1 [Example 295, (6-{[3-bromo-5-(trifluoromethyl)pyridin-2-yl]oxy}quinolin-2-yl)(piperazin-1-yl)methanone]	3200
O=C(c1ccc2cc(Oc3ccc(C(F)(F)F)cn3)ccc2n1)N1CCN(c2cccnn2)CC1 [Example 271, [4-(pyridazin-3-yl)piperazin-1-yl](6-{[5-(trifluoromethyl)pyridin-2-yl]oxy}quinolin-2-yl)methanone]	11200
O=C(NCC1COC1)c1ccc2cc(Oc3ccc(C(F)(F)F)cn3)ccc2n1 [Example 482, N-(oxetan-3-ylmethyl)-6-{[5-(trifluoromethyl)pyridin-2-yl]oxy}quinoline-2-carboxamide]	569
CN1CC(NC(=O)c2ccc3cc(Oc4ccc(C(F)F)cn4)ccc3n2)CC1=O (centres unmarked) [Example 462, 6-{[5-(difluoromethyl)pyridin-2-yl]oxy}-N-(1-methyl-5-oxopyrrolidin-3-yl)quinoline-2-carboxamide]	947
O=C(c1ccc2cc(Oc3ccc(C(F)(F)F)cn3)ccc2n1)N1CCNC(C(F)F)C1 (centres unmarked) [Example 594, [3-(difluoromethyl)piperazin-1-yl](6-{[5-(trifluoromethyl)pyridin-2-yl]oxy}quinolin-2-yl)methanone]	7590
